# Assay results: ChEMBL document CHEMBL4421717, “Antagonists and agonists of bitter taste receptors and uses thereof” (2012)
# Calls of active or inactive are those of the source. The rule behind the calls is not given here.
# How the values were obtained:
# Format in all cases: functional, cell-based
# [1] = molecular target: T1, Taste receptor type 2 member 46 (Homo sapiens) (UniProt P59540); test: Agonist activity at recombinant human N-terminal rat ST3 receptor-fused TAS2R46 expressed in HEK293T cells co-expressing Galpha16gust44 assessed as effect on intracellular calcium level at 100 uM by FLIPR assay
# T1 sequence (whole entry): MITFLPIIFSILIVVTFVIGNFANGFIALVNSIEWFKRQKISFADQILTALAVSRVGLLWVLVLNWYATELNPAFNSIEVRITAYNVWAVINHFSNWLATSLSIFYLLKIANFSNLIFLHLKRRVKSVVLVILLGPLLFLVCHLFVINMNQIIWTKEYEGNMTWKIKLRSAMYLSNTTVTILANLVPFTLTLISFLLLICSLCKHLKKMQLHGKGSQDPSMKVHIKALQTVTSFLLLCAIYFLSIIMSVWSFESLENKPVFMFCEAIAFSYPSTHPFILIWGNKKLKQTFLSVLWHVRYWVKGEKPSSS
# [2] = molecular target: T2, Taste receptor type 2 member 43 (Homo sapiens) (UniProt P59537); test: Antagonist activity at recombinant human N-terminal rat ST3 receptor-fused TAS2R43 expressed in HEK293T cells co-expressing Galpha16gust44 assessed as reduction in aristolochic acids-induced intracellular calcium level at 100 uM by FLIPR assay
# T2 sequence (whole entry): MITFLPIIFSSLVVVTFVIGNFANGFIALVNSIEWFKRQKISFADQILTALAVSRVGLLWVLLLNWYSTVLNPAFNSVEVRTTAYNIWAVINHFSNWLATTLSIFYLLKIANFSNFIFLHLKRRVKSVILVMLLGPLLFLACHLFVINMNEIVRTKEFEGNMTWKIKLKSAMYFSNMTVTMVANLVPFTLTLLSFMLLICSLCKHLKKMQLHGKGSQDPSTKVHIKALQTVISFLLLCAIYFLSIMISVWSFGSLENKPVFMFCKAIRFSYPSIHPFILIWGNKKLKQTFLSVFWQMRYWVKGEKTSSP
# [3] = molecular target: T3, Taste receptor type 2 member 50 (Homo sapiens) (UniProt P59544); test: Activity at recombinant human N-terminal rat ST3 receptor-fused TAS2R50 expressed in HEK293T cells co-expressing Galpha16gust44 assessed as effect on andrographolide-induced intracellular calcium level at 100 uM by FLIPR assay
# T3 sequence (whole entry): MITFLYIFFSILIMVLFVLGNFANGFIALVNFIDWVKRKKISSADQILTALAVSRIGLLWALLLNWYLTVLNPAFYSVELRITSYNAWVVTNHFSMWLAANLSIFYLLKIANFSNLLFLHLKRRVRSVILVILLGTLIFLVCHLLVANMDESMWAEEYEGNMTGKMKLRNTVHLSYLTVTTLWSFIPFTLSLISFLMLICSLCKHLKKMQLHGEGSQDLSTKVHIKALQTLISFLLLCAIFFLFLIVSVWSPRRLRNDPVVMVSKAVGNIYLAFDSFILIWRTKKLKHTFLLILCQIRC
# [4] = molecular target: T4, Taste receptor type 2 member 3 (Homo sapiens) (UniProt Q9NYW6); test: Activity at recombinant human N-terminal rat ST3 receptor-fused TAS2R3 expressed in HEK293T cells co-expressing Galpha16gust44 assessed as effect on chloroquine-induced intracellular calcium level at 100 uM by FLIPR assay
# T4 sequence (whole entry): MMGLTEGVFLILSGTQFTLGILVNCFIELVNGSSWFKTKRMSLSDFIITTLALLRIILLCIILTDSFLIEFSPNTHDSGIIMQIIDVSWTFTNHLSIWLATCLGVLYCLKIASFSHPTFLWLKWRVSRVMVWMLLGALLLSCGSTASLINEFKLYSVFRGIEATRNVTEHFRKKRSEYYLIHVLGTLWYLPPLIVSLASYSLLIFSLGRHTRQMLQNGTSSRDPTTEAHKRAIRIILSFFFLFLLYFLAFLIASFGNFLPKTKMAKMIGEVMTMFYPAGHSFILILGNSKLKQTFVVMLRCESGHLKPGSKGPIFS
# [5] = molecular target: T1, Taste receptor type 2 member 46 (Homo sapiens); test: Antagonist activity at recombinant human N-terminal rat ST3 receptor-fused TAS2R46 expressed in HEK293T cells co-expressing Galpha16gust44 assessed as inhibition of picrotoxinin-induced intracellular calcium level at 100 uM by FLIPR assay
# [6] = molecular target: T5, Taste receptor type 2 member 1 (Homo sapiens) (UniProt Q9NYW7); test: Activity at recombinant human N-terminal rat ST3 receptor-fused TAS2R1 expressed in HEK293T cells co-expressing Galpha16gust44 assessed as effect on trans-isocohumulone-induced intracellular calcium level at 100 uM by FLIPR assay
# T5 sequence (whole entry): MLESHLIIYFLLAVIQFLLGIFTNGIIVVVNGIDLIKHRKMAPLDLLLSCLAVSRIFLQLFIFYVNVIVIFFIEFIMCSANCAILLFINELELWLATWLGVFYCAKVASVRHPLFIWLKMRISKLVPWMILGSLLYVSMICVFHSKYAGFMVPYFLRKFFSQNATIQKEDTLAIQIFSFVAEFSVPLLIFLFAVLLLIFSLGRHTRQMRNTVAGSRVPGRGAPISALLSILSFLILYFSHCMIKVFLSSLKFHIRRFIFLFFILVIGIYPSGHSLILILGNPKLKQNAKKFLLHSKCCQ
# [7] = molecular target: Taste receptor type 2 member 41 (Homo sapiens) (UniProt P59536); test: Agonist activity at recombinant human N-terminal rat ST3 receptor-fused TAS2R41 expressed in HEK293T cells co-expressing Galpha16gust44 assessed as effect on intracellular calcium level at 100 uM by FLIPR assay
# Chain of Taste receptor type 2 member 41 (Homo sapiens) (P59536 whole entry, the tested form may be a part): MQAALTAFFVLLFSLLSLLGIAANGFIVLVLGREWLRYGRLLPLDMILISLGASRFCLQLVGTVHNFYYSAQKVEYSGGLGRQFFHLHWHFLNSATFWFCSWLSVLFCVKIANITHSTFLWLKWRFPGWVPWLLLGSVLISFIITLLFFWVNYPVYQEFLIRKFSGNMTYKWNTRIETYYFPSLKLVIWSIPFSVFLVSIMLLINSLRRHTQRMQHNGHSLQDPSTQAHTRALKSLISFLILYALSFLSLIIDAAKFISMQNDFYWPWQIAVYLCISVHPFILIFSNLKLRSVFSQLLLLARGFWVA
# [8] = molecular target: T1, Taste receptor type 2 member 46 (Homo sapiens); test: (§1) Competitive antagonist activity at recombinant human N-terminal rat ST3 receptor-fused TAS2R46 expressed in HEK293T cells co-expressing Galpha16gust44 assessed as inhibition strychnine-induced intracellular calcium level by FLIPR assay
# [9] = molecular target: T1, Taste receptor type 2 member 46 (Homo sapiens); test: as §1, with “by measuring strychnine induced maximum signal amplitude at 100 uM by” for “by”, “assay (reference value: 0.42 +/- 0.09 au))” for “assay”
# [10] = molecular target: T6, Taste receptor type 2 member 38 (Homo sapiens) (UniProt P59533); test: Agonist activity at recombinant human N-terminal rat ST3 receptor-fused TAS2R38 expressed in HEK293T cells co-expressing Galpha16gust44 assessed as effect on intracellular calcium level at 100 uM by FLIPR assay
# T6 sequence (whole entry): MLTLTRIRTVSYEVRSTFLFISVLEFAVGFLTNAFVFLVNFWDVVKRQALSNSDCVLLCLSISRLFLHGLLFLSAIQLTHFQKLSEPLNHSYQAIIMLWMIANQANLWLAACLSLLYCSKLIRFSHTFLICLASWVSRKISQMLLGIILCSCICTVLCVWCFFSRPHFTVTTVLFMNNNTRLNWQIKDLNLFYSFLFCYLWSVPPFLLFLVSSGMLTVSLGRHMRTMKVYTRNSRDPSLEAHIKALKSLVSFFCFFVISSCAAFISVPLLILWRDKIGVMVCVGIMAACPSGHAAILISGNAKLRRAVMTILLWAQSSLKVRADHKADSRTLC
SMILES,Activity [1],inhibition [2],Activity [3],Activity [4],inhibition [5],Activity [6],Activity [7],inhibition [8],Activity [9] [a.u.],Activity [10]
C/C1=C\C[C@H](O)[C@@H](C)C[C@H]2OC(=O)[C@@H](C)C2CC1 (stereo partly specified),Active,100%,inactive,inactive,Active,inactive,–,–,–,–
C/C1=C\C[C@H](O)/C(C)=C/[C@H]2OC(=O)[C@@H](C)C2CC1 (stereo partly specified),inactive,Active,inactive,inactive,Active,inactive,inactive,Active,0.34,inactive
